In PubChem BioAssay AID256 (DTP/NCI, 2004):
Where “and” joins values, the source holds several entries; their conditions need not be identical. Equal values may be shown once. Toxic doses and inconclusive results are not listed. The calls were made as follows: active = survival T/C of 150% or more; inactive = T/C below 125% in these data.

Tested on: CD2F1 mice, L1210 leukemia ip, survival T/C
Assay: NCI In Vivo Anticancer Drug Screen. Data for tumor model L1210 Leukemia (intraperitoneal) in CD2F1 (CDF1) mice
Conditions: higher = longer survival
Method in brief: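 Activity against a transplanted murine tumor was judged by comparing the compound group with a vehicle group. The outcome in the treated animals was divided by that in the controls.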

[1] = endpoint: mean survival time, dose: 25.0 mg/kg/injection, schedule: Q01DX009 (ip), vehicle: saline with Tween-80
[2] = endpoint: mean survival time, dose: 50.0 mg/kg/injection, schedule: Q01DX009 (ip), vehicle: saline with Tween-80
[3] = endpoint: mean survival time, dose: 100.0 mg/kg/injection, schedule: Q01DX009 (ip), vehicle: saline with Tween-80
[4] = endpoint: mean survival time, dose: 100.0 mg/kg/injection, schedule: Q04DX003 (ip), vehicle: saline with Tween-80
[5] = endpoint: mean survival time, dose: 100.0 mg/kg/injection, schedule: Q04DX002 (ip), vehicle: saline with Tween-80
[6] = endpoint: mean survival time, dose: 200.0 mg/kg/injection, schedule: Q04DX003 (ip), vehicle: saline with Tween-80
[7] = endpoint: mean survival time, dose: 400.0 mg/kg/injection, schedule: Q04DX003 (ip), vehicle: saline with Tween-80
[8] = endpoint: mean survival time, dose: 100.0 mg/kg/injection, schedule: Q01DX009 (ip), vehicle: saline
[9] = endpoint: mean survival time, dose: 200.0 mg/kg/injection, schedule: Q01DX009 (ip), vehicle: saline
[10] = endpoint: mean survival time, dose: 400.0 mg/kg/injection, schedule: Q01DX009 (ip), vehicle: saline

Measured: T/C

Cc1ccc(C(C)C)c(O)c1O
inactive: [1] 94 % of control | endpoint: mean survival time, dose: 25.0 mg/kg/injection, schedule: Q04DX003 (ip), vehicle: saline with Tween-80 96 % of control | [2] 103 % of control | endpoint: mean survival time, dose: 50.0 mg/kg/injection, schedule: Q04DX003 (ip), vehicle: saline with Tween-80 98 % of control | [3] 97 % of control | [4] 94 % of control

Cc1onc(-c2ccccc2)c1C1=N/C(=C\c2ccc(N(C)C)cc2)C(=O)O1
inactive: [5] 94 % of control | endpoint: mean survival time, dose: 200.0 mg/kg/injection, schedule: Q04DX002 (ip), vehicle: saline with Tween-80 113 % of control | endpoint: mean survival time, dose: 400.0 mg/kg/injection, schedule: Q04DX002 (ip), vehicle: saline with Tween-80 90 % of control

O=S1(=O)Cc2c(Br)c(Br)c(Br)c(Br)c2C1
inactive: endpoint: mean survival time, dose: 12.5 mg/kg/injection, schedule: Q01DX009 (ip), vehicle: saline with Tween-80 90 % of control | [1] 88 % of control | [2] 86 % of control | [4] 101 % of control | [6] 110 % of control | [7] 96 % of control

Cc1ccc2c(ccc(CC(=S)[S-])[n+]2C)c1
inactive: endpoint: mean survival time, dose: 6.25 mg/kg/injection, schedule: Q01DX009 (ip), vehicle: Klucel (hydroxypropylcellulose) (HPC) 97 % of control and 107 % of control | endpoint: mean survival time, dose: 12.5 mg/kg/injection, schedule: Q01DX009 (ip), vehicle: Klucel (hydroxypropylcellulose) (HPC) 94 % of control and 109 % of control | endpoint: mean survival time, dose: 25.0 mg/kg/injection, schedule: Q01DX009 (ip), vehicle: Klucel (hydroxypropylcellulose) (HPC) 93 % of control | endpoint: mean survival time, dose: 50.0 mg/kg/injection, schedule: Q01DX009 (ip), vehicle: Klucel (hydroxypropylcellulose) (HPC) 91 % of control and 95 % of control | endpoint: mean survival time, dose: 100.0 mg/kg/injection, schedule: Q01DX009 (ip), vehicle: Klucel (hydroxypropylcellulose) (HPC) 90 % of control and 96 % of control

COC1=CC(c2ccccc2[N+](=O)[O-])OC1=O (stereo unspecified)
inactive: [3] 97 % of control | [4] 96 % of control | endpoint: mean survival time, dose: 200.0 mg/kg/injection, schedule: Q01DX009 (ip), vehicle: saline with Tween-80 91 % of control | [6] 91 % of control | endpoint: mean survival time, dose: 400.0 mg/kg/injection, schedule: Q01DX009 (ip), vehicle: saline with Tween-80 91 % of control | [7] 93 % of control

COC(=O)c1ccoc1
inactive: endpoint: median survival time, dose: 12.5 mg/kg/injection, schedule: Q01DX009 (ip), vehicle: saline 98 % of control | endpoint: median survival time, dose: 25.0 mg/kg/injection, schedule: Q01DX009 (ip), vehicle: saline 100 % of control | endpoint: median survival time, dose: 50.0 mg/kg/injection, schedule: Q01DX009 (ip), vehicle: saline 100 % of control | endpoint: median survival time, dose: 100.0 mg/kg/injection, schedule: Q01DX009 (ip), vehicle: saline 104 % of control | endpoint: median survival time, dose: 200.0 mg/kg/injection, schedule: Q01DX009 (ip), vehicle: saline 105 % of control | endpoint: median survival time, dose: 400.0 mg/kg/injection, schedule: Q01DX009 (ip), vehicle: saline 114 % of control

CC(=O)OC1COC(n2cnc(C#N)c2C#N)C(OC(C)=O)C1OC(C)=O (stereo unspecified)
inactive: endpoint: mean survival time, dose: 12.5 mg/kg/injection, schedule: Q01DX005 (ip), vehicle: distilled water + Tween-80 101 % of control and 98 % of control | endpoint: mean survival time, dose: 25.0 mg/kg/injection, schedule: Q01DX005 (ip), vehicle: distilled water + Tween-80 95 % of control and 103 % of control | endpoint: mean survival time, dose: 50.0 mg/kg/injection, schedule: Q01DX005 (ip), vehicle: distilled water + Tween-80 93 % of control and 101 % of control | endpoint: mean survival time, dose: 100.0 mg/kg/injection, schedule: Q01DX005 (ip), vehicle: distilled water + Tween-80 97 % of control | endpoint: mean survival time, dose: 200.0 mg/kg/injection, schedule: Q01DX005 (ip), vehicle: distilled water + Tween-80 93 % of control and 104 % of control

CC1(C)CC23C4COC(=O)C2CCC1C3CC4=O (stereo unspecified)
inactive: endpoint: mean survival time, dose: 3.12 mg/kg/injection, schedule: Q01DX009 (ip), vehicle: DMSO 95 % of control | endpoint: mean survival time, dose: 6.25 mg/kg/injection, schedule: Q01DX009 (ip), vehicle: DMSO 96 % of control and 98 % of control | endpoint: mean survival time, dose: 12.5 mg/kg/injection, schedule: Q01DX009 (ip), vehicle: DMSO 90 % of control and 94 % of control | endpoint: mean survival time, dose: 25.0 mg/kg/injection, schedule: Q01DX009 (ip), vehicle: DMSO 94 % of control and 98 % of control | endpoint: mean survival time, dose: 50.0 mg/kg/injection, schedule: Q01DX009 (ip), vehicle: DMSO 104 % of control | endpoint: mean survival time, dose: 100.0 mg/kg/injection, schedule: Q01DX009 (ip), vehicle: DMSO 93 % of control | endpoint: mean survival time, dose: 200.0 mg/kg/injection, schedule: Q01DX009 (ip), vehicle: DMSO 112 % of control

CC1=CC(=O)C(CCC#N)C(C)(C)C1 (stereo unspecified)
inactive: [5] 91 % of control

O=C1CCC(=O)CC1
inactive: endpoint: mean survival time, dose: 100.0 mg/kg/injection, schedule: Q04DX002 (ip), vehicle: saline 111 % of control | endpoint: mean survival time, dose: 200.0 mg/kg/injection, schedule: Q04DX002 (ip), vehicle: saline 107 % of control | endpoint: mean survival time, dose: 400.0 mg/kg/injection, schedule: Q04DX002 (ip), vehicle: saline 107 % of control

CN1CCN(Cc2cn(C3CC(O)C(CO)O3)c(=O)[nH]c2=O)CC1 (stereo unspecified)
inactive: endpoint: mean survival time, dose: 12.5 mg/kg/injection, schedule: Q01DX005 (ip), vehicle: water 96 % of control | endpoint: mean survival time, dose: 25.0 mg/kg/injection, schedule: Q01DX005 (ip), vehicle: water 93 % of control | endpoint: mean survival time, dose: 50.0 mg/kg/injection, schedule: Q01DX005 (ip), vehicle: water 91 % of control | endpoint: mean survival time, dose: 100.0 mg/kg/injection, schedule: Q01DX005 (ip), vehicle: water 95 % of control | endpoint: mean survival time, dose: 200.0 mg/kg/injection, schedule: Q01DX005 (ip), vehicle: water 90 % of control

O=[N+]([O-])CC(O)C(O)C(O)C(O)CO (stereo unspecified)
inactive: [8] 107 % of control | [9] 112 % of control | [10] 107 % of control

CCCCCCCCCC1=NC(C)(C)CN1C(C)(C)CO
inactive: endpoint: mean survival time, dose: 1.25 mg/kg/injection, schedule: Q01DX009 (ip), vehicle: saline with Tween-80 106 % of control | endpoint: mean survival time, dose: 2.5 mg/kg/injection, schedule: Q01DX009 (ip), vehicle: saline with Tween-80 109 % of control | endpoint: mean survival time, dose: 5.0 mg/kg/injection, schedule: Q01DX009 (ip), vehicle: saline with Tween-80 91 % of control

OCC#CCO
inactive: endpoint: mean survival time, dose: 12.0 mg/kg/injection, schedule: Q01DX009 (ip), vehicle: saline 94 % of control | endpoint: mean survival time, dose: 25.0 mg/kg/injection, schedule: Q01DX009 (ip), vehicle: saline 93 % of control | endpoint: mean survival time, dose: 50.0 mg/kg/injection, schedule: Q01DX009 (ip), vehicle: saline 104 % of control

CC1CC2(C)C(CC1=O)CC(C)C1C3CCC(O)C3(C)CCC12 (stereo unspecified)
inactive: [4] 97 % of control | [6] 92 % of control | [7] 95 % of control

CC(C)(C)c1cc(C=C(C#N)C#N)cc(C(C)(C)C)c1O
inactive: endpoint: mean survival time, dose: 100.0 mg/kg/injection, schedule: Q01DX001 (ip), vehicle: Klucel (hydroxypropylcellulose) (HPC) 87 % of control | endpoint: mean survival time, dose: 200.0 mg/kg/injection, schedule: Q01DX001 (ip), vehicle: Klucel (hydroxypropylcellulose) (HPC) 102 % of control | endpoint: mean survival time, dose: 400.0 mg/kg/injection, schedule: Q01DX001 (ip), vehicle: Klucel (hydroxypropylcellulose) (HPC) 87 % of control

CCOC(=O)c1cccc2ncccc12
inactive: endpoint: mean survival time, dose: 75.0 mg/kg/injection, schedule: Q04DX003 (ip), vehicle: saline 101 % of control | endpoint: mean survival time, dose: 150.0 mg/kg/injection, schedule: Q04DX003 (ip), vehicle: saline 93 % of control | endpoint: mean survival time, dose: 300.0 mg/kg/injection, schedule: Q04DX003 (ip), vehicle: saline 97 % of control

C=C(C)C1CCC2(COS(=O)(=O)c3ccc(C)cc3)CCC3(C)C(CCC4C5(C)CCC(OC6CCCCO6)C(C)(C)C5CCC43C)C12 (stereo unspecified)
inactive: endpoint: mean survival time, dose: 25.0 mg/kg/injection, schedule: Q04DX002 (ip), vehicle: saline with Tween-80 103 % of control | endpoint: mean survival time, dose: 50.0 mg/kg/injection, schedule: Q04DX002 (ip), vehicle: saline with Tween-80 92 % of control

CCSC(C)C
inactive: [8] 101 % of control | [9] 96 % of control | [10] 98 % of control

[Cl][Pt+2][Cl].[NH-]CC(O)c1ccc2oc3ccccc3c2c1.[NH-]CC(O)c1ccc2oc3ccccc3c2c1 (stereo unspecified)
inactive: endpoint: median survival time, dose: 10.0 mg/kg/injection, schedule: Q04DX003 (ip), vehicle: saline 104 % of control | endpoint: median survival time, dose: 20.0 mg/kg/injection, schedule: Q04DX003 (ip), vehicle: saline 108 % of control | endpoint: median survival time, dose: 40.0 mg/kg/injection, schedule: Q04DX003 (ip), vehicle: saline 104 % of control | endpoint: median survival time, dose: 80.0 mg/kg/injection, schedule: Q04DX003 (ip), vehicle: saline with Tween-80 109 % of control | endpoint: median survival time, dose: 80.0 mg/kg/injection, schedule: Q04DX003 (ip), vehicle: saline 108 % of control
